Data: the NIST ThermoML archive (doi:10.1016/j.jct.2016.08.001)
Numbers after ± are expanded uncertainties.

Experiments:
[1] = xn = mol fraction of the nth substance listed; conditions: 100 kPa, Liquid; for speed of sound: Frequency=3 MHz, Sing-around technique in a fixed-path interferometer; for mass density: Vibrating tube method
[2] = refractive index (Na D-line) (dimensionless); xn = mol fraction of the nth substance listed; conditions: 100 kPa, Liquid, Standard Abbe refractometry

N#Cc1ccccc1 [benzonitrile] + CCOC(=O)OCC
Conditions	mass density, [1] [kg/m3]	refractive index, [2]	speed of sound, [1] [m/s]
298.15 K, x2 = 0	1000.6 ± 1	1.526 ± 0.0016	1415.6 ± 1.5
298.15 K, x2 = 0.0854	998.8 ± 1	1.5123 ± 0.0016	1396.3 ± 1.5
298.15 K, x2 = 0.1886	996.7 ± 1	1.4963 ± 0.0016	1373.1 ± 1.5
298.15 K, x2 = 0.2618	994.9 ± 1	1.4851 ± 0.0016	1356.1 ± 1.5
298.15 K, x2 = 0.3642	992.1 ± 1	1.4698 ± 0.0016	1331.9 ± 1.5
298.15 K, x2 = 0.462	989.3 ± 1	1.4556 ± 0.0016	1308.6 ± 1.5
298.15 K, x2 = 0.5563	986.3 ± 1	1.442 ± 0.0016	1286.1 ± 1.5
298.15 K, x2 = 0.6599	982.7 ± 1	1.4275 ± 0.0016	1261 ± 1.5
298.15 K, x2 = 0.7732	978.5 ± 1	1.412 ± 0.0016	1233.3 ± 1.5
298.15 K, x2 = 0.8703	974.6 ± 1	1.3991 ± 0.0016	1209.4 ± 1.6
303.15 K, x2 = 0	995.9 ± 1	1.5235 ± 0.0016	1398.1 ± 1.5
303.15 K, x2 = 0.0854	994 ± 1	1.5098 ± 0.0016	1378.5 ± 1.5
303.15 K, x2 = 0.1886	991.9 ± 1	1.494 ± 0.0016	1354.8 ± 1.5
303.15 K, x2 = 0.2618	990 ± 1	1.4828 ± 0.0016	1337.7 ± 1.5
303.15 K, x2 = 0.3642	987.2 ± 1	1.4676 ± 0.0016	1313.1 ± 1.5
303.15 K, x2 = 0.462	984.3 ± 1	1.4533 ± 0.0016	1289.5 ± 1.5
303.15 K, x2 = 0.5563	981.2 ± 1	1.4398 ± 0.0016	1266.7 ± 1.5
303.15 K, x2 = 0.6599	977.5 ± 1	1.4253 ± 0.0016	1241.3 ± 1.5
303.15 K, x2 = 0.7732	973.2 ± 1	1.4098 ± 0.0016	1213.3 ± 1.5
303.15 K, x2 = 0.8703	969.2 ± 1	1.3969 ± 0.0016	1189.2 ± 1.5
308.15 K, x2 = 0	991.4 ± 1	1.5209 ± 0.0016	1380.8 ± 1.5
308.15 K, x2 = 0.0854	989.5 ± 1	1.5074 ± 0.0016	1360.8 ± 1.5
308.15 K, x2 = 0.1886	987.2 ± 1	1.4916 ± 0.0016	1336.7 ± 1.5
308.15 K, x2 = 0.2618	985.3 ± 1	1.4806 ± 0.0016	1319.3 ± 1.5
308.15 K, x2 = 0.3642	982.3 ± 1	1.4653 ± 0.0016	1294.4 ± 1.5
308.15 K, x2 = 0.462	979.3 ± 1	1.4511 ± 0.0016	1270.6 ± 1.5
308.15 K, x2 = 0.5563	976.1 ± 1	1.4376 ± 0.0016	1247.4 ± 1.5
308.15 K, x2 = 0.6599	972.3 ± 1	1.4231 ± 0.0016	1221.8 ± 1.5
308.15 K, x2 = 0.7732	967.8 ± 1	1.4076 ± 0.0016	1193.5 ± 1.5
308.15 K, x2 = 0.8703	963.7 ± 1	1.3946 ± 0.0016	1169.1 ± 1.5
313.15 K, x2 = 0	986.9 ± 1	1.5184 ± 0.0016	1363.6 ± 1.5
313.15 K, x2 = 0.0854	984.9 ± 1	1.505 ± 0.0016	1343.2 ± 1.5
313.15 K, x2 = 0.1886	982.5 ± 1	1.4893 ± 0.0016	1318.7 ± 1.5
313.15 K, x2 = 0.2618	980.5 ± 1	1.4783 ± 0.0016	1301 ± 1.5
313.15 K, x2 = 0.3642	977.4 ± 1	1.4631 ± 0.0016	1275.9 ± 1.5
313.15 K, x2 = 0.462	974.2 ± 1	1.4489 ± 0.0016	1251.8 ± 1.5
313.15 K, x2 = 0.5563	970.9 ± 1	1.4353 ± 0.0016	1228.3 ± 1.5
313.15 K, x2 = 0.6599	967 ± 1	1.4208 ± 0.0016	1202.4 ± 1.5
313.15 K, x2 = 0.7732	962.4 ± 1	1.4054 ± 0.0016	1173.8 ± 1.5
313.15 K, x2 = 0.8703	958.2 ± 1	1.3924 ± 0.0016	1149.2 ± 1.5
318.15 K, x2 = 0	982.5 ± 1	1.5158 ± 0.0016	1346.5 ± 1.5
318.15 K, x2 = 0.0854	980.4 ± 1	1.5025 ± 0.0016	1325.7 ± 1.5
318.15 K, x2 = 0.1886	977.9 ± 1	1.487 ± 0.0016	1300.8 ± 1.5
318.15 K, x2 = 0.2618	975.8 ± 1	1.4761 ± 0.0016	1282.9 ± 1.5
318.15 K, x2 = 0.3642	972.5 ± 1	1.4609 ± 0.0016	1257.4 ± 1.5
318.15 K, x2 = 0.462	969.2 ± 1	1.4466 ± 0.0016	1233 ± 1.5
318.15 K, x2 = 0.5563	965.8 ± 1	1.4332 ± 0.0016	1209.3 ± 1.5
318.15 K, x2 = 0.6599	961.7 ± 1	1.4187 ± 0.0016	1183.2 ± 1.5
318.15 K, x2 = 0.7732	956.9 ± 1	1.4032 ± 0.0016	1154.3 ± 1.5
318.15 K, x2 = 0.8703	952.7 ± 1	1.3902 ± 0.0016	1129.5 ± 1.5
323.15 K, x2 = 0	977.9 ± 1	1.5133 ± 0.0016	1329.5 ± 1.5
323.15 K, x2 = 0.0854	975.8 ± 1	1.5002 ± 0.0016	1308.3 ± 1.5
323.15 K, x2 = 0.1886	973.2 ± 1	1.4848 ± 0.0016	1282.9 ± 1.5
323.15 K, x2 = 0.2618	971 ± 1	1.4739 ± 0.0016	1264.9 ± 1.5
323.15 K, x2 = 0.3642	967.6 ± 1	1.4587 ± 0.0016	1239.3 ± 1.5
323.15 K, x2 = 0.462	964.2 ± 1	1.4445 ± 0.0016	1214.5 ± 1.5
323.15 K, x2 = 0.5563	960.6 ± 1	1.431 ± 0.0016	1190.6 ± 1.5
323.15 K, x2 = 0.6599	956.5 ± 1	1.4165 ± 0.0016	1164.1 ± 1.5
323.15 K, x2 = 0.7732	951.5 ± 1	1.401 ± 0.0016	1135 ± 1.5
323.15 K, x2 = 0.8703	947.1 ± 1	1.3881 ± 0.0016	1110 ± 1.5
